Assay results reported in the supplement of paper PMC10307832.

Experiments:
Assay in all cases: relative viability (nuclei count vs DMSO), 5 days (fraction); higher = more cells survive
Lapatinib + Vorinostat = compound: CS(=O)(=O)CCNCc1ccc(-c2ccc3ncnc(Nc4ccc(OCc5cccc(F)c5)c(Cl)c4)c3c2)o1 [Lapatinib] + O=C(CCCCCCC(=O)Nc1ccccc1)NO [Vorinostat] (partner 1 µM)
Outline: (§1)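 For relative viability, nuclei counts in treated wells were divided by those in vehicle wells. Lung cancer cell lines had been pin-tool dosed in 1536-well plates the day after seeding and cultured for 5 days, then fixed and stained in one step (final 0.05% Triton X-100, 1% formaldehyde, 1 ug/ml Hoechst) and imaged at 4×. Doses were one drug alone or a fixed anchor-drug dose plus five library-drug doses (not always all listed) in √10 steps, and values are duplicate-plate medians.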

Lapatinib + Phenformin = compound: CS(=O)(=O)CCNCc1ccc(-c2ccc3ncnc(Nc4ccc(OCc5cccc(F)c5)c(Cl)c4)c3c2)o1 [Lapatinib] + N=C(N)NC(=N)NCCc1ccccc1 [Phenformin] (partner 250 µM)
Outline: as §1

Lapatinib + Foretinib = compound: CS(=O)(=O)CCNCc1ccc(-c2ccc3ncnc(Nc4ccc(OCc5cccc(F)c5)c(Cl)c4)c3c2)o1 [Lapatinib] + COc1cc2c(Oc3ccc(NC(=O)C4(C(=O)Nc5ccc(F)cc5)CC4)cc3F)ccnc2cc1OCCCN1CCOCC1 [Foretinib] (partner 0.25 µM)
Outline: as §1

Wnt-C59 + Foretinib = compound: CC1=NC=CC(=C1)C2=CC=C(C=C2)CC(=O)NC3=CC=C(C=C3)C4=CN=CC=C4 [Wnt-C59] + COc1cc2c(Oc3ccc(NC(=O)C4(C(=O)Nc5ccc(F)cc5)CC4)cc3F)ccnc2cc1OCCCN1CCOCC1 [Foretinib] (partner 0.25 µM)
Outline: as §1

UMC-11 was tested, and the relative viability (Lapatinib + Vorinostat; first compound 0.02 µM) was 0.42, the relative viability (Lapatinib + Vorinostat; first compound 0.06325 µM) was 0.384 and the relative viability (Lapatinib + Vorinostat; first compound 0.2 µM) was 0.39. It also gave a relative viability (Lapatinib + Vorinostat; first compound 0.6325 µM) of 0.367, a relative viability (Lapatinib + Vorinostat; first compound 2 µM) of 0.321 and a relative viability (Lapatinib + Phenformin; first compound 0.02 µM) of 0.351. It also gave a relative viability (Lapatinib + Phenformin; first compound 0.06325 µM) of 0.306, a relative viability (Lapatinib + Phenformin; first compound 0.2 µM) of 0.297 and a relative viability (Lapatinib + Phenformin; first compound 0.6325 µM) of 0.321. For the same cell line, the relative viability (Lapatinib + Phenformin; first compound 2 µM) was 0.298, the relative viability (Lapatinib + Foretinib; first compound 0.02 µM) was 0.951 and the relative viability (Lapatinib + Foretinib; first compound 0.06325 µM) was 1.01. The relative viability (Lapatinib + Foretinib; first compound 0.2 µM) was 0.961, the relative viability (Lapatinib + Foretinib; first compound 0.6325 µM) was 0.978 and the relative viability (Lapatinib + Foretinib; first compound 2 µM) was 0.933. It also gave a relative viability (Wnt-C59 + Foretinib; first compound 0.001 µM) of 1.04, a relative viability (Wnt-C59 + Foretinib; first compound 0.01 µM) of 1.01 and a relative viability (Wnt-C59 + Foretinib; first compound 0.03162 µM) of 1.06. For the same cell line, the relative viability (Wnt-C59 + Foretinib; first compound 0.1 µM) was 0.996.
